The values below come from article PMC11110795, “Design, synthesis and antimycobacterial activity of imidazo[1,5-a]quinolines and their zinc-complexes” (RSC Medicinal Chemistry, 2024).

Data set [1] can be described thus: in vitro. Conditions: human.
Data set [2] concerns Septoria tritici MUCL45408. Put plainly: MIC, BacTiter-Glo ATP quantification. The settings on record: Septoria tritici MUCL45408, PDB medium, 4 days, BacTiter-Glo, n=3, read-out: MIC Str. It counts as cell-based.
In data set [3] the test system is Escherichia coli ATCC35218. In words: MIC, microtiter turbidity test. It counts as cell-based. The settings on record: Escherichia coli ATCC35218, MHII medium, turbidity at 600 nm, n=3; read-out: MIC Ec.
The subject of data set [4] is Staphylococcus aureus ATCC33592. In words: MIC, microtiter turbidity test. Format: cell-based. Conditions: Staphylococcus aureus ATCC33592 (MRSA), MHII medium, turbidity at 600 nm, n=3, read-out: MIC Sa.
Data set [5] relates to Mycobacterium tuberculosis ATCC 35801. Put plainly: Resazurin microtiter assay, second-tier BSL-3. Format: cell-based. On the technique in general: Alamar Blue is a resazurin reagent that responds to reducing activity.
Data set [6] deals with Mycobacterium tuberculosis H37Ra. In words: MIC, BacTiter-Glo ATP quantification, surrogate Mtb strain. It counts as cell-based. The settings on record: Mycobacterium tuberculosis, H37RA, 168 h, read-out: MIC Mtb, Mycobacterium tuberculosis H37Ra, 7H9-palmitate, 7 days, BacTiter-Glo, n=3. How it is done:
The antimicrobial effect of the 21 synthesized compounds was initially accessed against a panel of 4 microbial indicator strains (Escherichia coli ATCC35218, Staphylococcus aureus ATCC33592, Septoria tritici MUCL45408 and Mycobacterium tuberculosis H37Ra). Cytotoxicity was investigated using an epithelia cell line from human lung carcinoma (Calu-3).
The minimum inhibitory concentration (MIC) of the […] compounds 5a-i, 6a-b,7a, 8a and C1-8 was determined as previously described with only minor changes. 6,7 Briefly, the cell density of an overnight cultures of Escherichia coli ATCC35218 and Staphylococcus aureus […] was diluted to 5 × 10^5 cells/mL in cation adjusted Mueller Hinton II medium (Becton Dickinson, Sparks, NV, USA) and distributed into 96-well plates. Three 12-point dilution series of rifampicin, tetracycline and gentamicin ranging from 64 - 0.03 µg/mL (all Sigma Aldrich, St. Louis, MO, USA), respectively, were used as positive controls. All tested compounds were dissolved in dimethyl sulfoxide (DMSO, Carl Roth GmbH + Co., Karlsruhe, Germany) and tested in triplicate at the same concentrations as the positive controls.
Bacterial suspensions without test compound or positive control were used as negative controls.
Medium background was averaged from 5 replicates. Assay incubation was done at 37°C, 180rpm and 85% relative humidity. The turbidity of each well was measured with a microplate spectrophotometer at 600 nm (LUMIstar® Omega BMG Labtech, Ortenberg, Germany). Growth inhibition was calculated relative to the absorption of the controls.
For S. tritici MUCL45408, a previously prepared spore solution was used to adjust the assay inoculum to 1 × 10^5 spores/mL in potato dextrose medium (Sigma Aldrich). Septoria assay plates were incubated for 4 days at 25°C, 180 rpm and 85% rH. Tebuconazole (Cayman Chemical Company, Ann Arbor, MI, USA) and amphotericin B (Sigma Aldrich) were used as positive control. Cell viability was evaluated via ATP quantification (BacTiter-Glo™, Promega, Walldorf, Germany) according to the manufacturer’s […]
Mycobacterium tuberculosis ITM-M006710 H37Ra (ATCC 9431) was incubated for 14 days in Middlebrook 7H9 broth (from ThermoFisher Scientific, Walthman, MA, USA) supplemented with 5.6 µg/mL palmitic acid (Sigma Aldrich), 1 mg/mL casitone (ThermoFisher Scientific), 5mg/mL BSA, 4µg/mL catalase (Sigma Aldrich), and 0.2% glycerol at 37°C, 180 rpm and 85% rH. In a first step, the culture was diluted to McFarland standard of 1, before the final inoculum density of a 1 × 10^6 cells/mL was obtained by further dilution with freshly prepared medium. Individual 12-point dilution series of rifampicin, ampicillin and gentamicin (ranging from 64-0.03 µg/mL) were used as positive controls. The assay plates were incubated for 7 days under microaerophilic conditions at 37°C/5% CO2 (BD gaspak CO2 system) and read-out was done by ATP quantification (s. above).
The MIC was defined as the minimum concentration where at least 85% growth inhibition relative to the negative control was measured. Relative inhibition for the microtiter turbidity tests (MTT) were […]
rel. inh.% = 100 * [1- (AU sample - AU Low)/(AU High - AU Low)]
AU: absorption unit at 600nm; Low: medium blank; High: negative control of maximal growth.
Accordingly, the BacTiter-Glo™ (BTG) assays were calculated as rel. inh.% = 100 * [1- (LU sample - LU Low)/(LU High - LU Low)]
AU: luminescence unit; Low: medium blank; High: negative control of maximal growth.
For Mycobacterium tuberculosis ATCC 35801 a resazurin microtiter assay was carried out as previously described8 Briefly, assay plates were set up by transferring 10 µl of compounds form a 1:2-fold dilution series in distilled and sterile water to a 96-well plate. The final assay´s concentrations range from 0.39-100 µM and as positive and negative control 5 µM rifampicin and 0.5% DMSO were used. Subsequently a bacterial suspension with Mycobacterium tuberculosis with a final OD560 of 0.0003 was prepared in […]

Data set [7] relates to various Mtb strains. Also noted: method as in PMID 27654337, PMID 29900893, PMID 36934122, PMID 32750539. Conditions: cited from earlier work.

Where two headings read alike, the source gives them in different places. A value given as a limit tells only on which side of the number the result lay.

The term IC50 denotes the concentration that inhibits the measured activity by half. One may read the MIC as the smallest concentration in the dilution series that meets the test's criterion for growth inhibition. As usually defined, the inhibition is how much of the control response was suppressed. A high value points to a response far below the control. As a reminder, the IC90 is the concentration needed for an effect of 90%. In the case of `c1ccc(-c2nc(-c3cc4ccccc4cn3)c3ccc4ccccc4n23)cc1` [5g], the IC50 at 3 days in data set [1] is more than 100 µM. Further, the minimal inhibitory concentration (MIC) in data set [2] is more than 144 µM; in data set [2] (Zymoseptoria tritici, 96 h), more than 144 µM; in data set [3], more than 144 µM; in data set [4] (ATCC 33592 / MRSA) it was more than 144 µM; in data set [4], more than 144 µM; in data set [6] it was not above 2 µM. For the same compound, 20 µM produced 82% inhibition in data set [5] (ATCC35801, Mtb ATCC 35801, 20 μM). The IC90 worked out at 132 µM in data set [5] (ATCC35801, read-out: IC90 Mtb ATCC 35801, resazurin, 7 days + 24 h) and 136 µM in data set [5] (ATCC35801, resazurin, 7 days + 24 h, read-out: IC90 Mtb ATCC 35801). The IC50 in data set [5] (ATCC35801, resazurin, 7 days + 24 h, read-out: IC50 Mtb ATCC 35801) stood at 86.5 µM.
With `NNC(=O)c1ccncc1` [isoniazid], the “MIC, literature reported values” in data set [7] was 0.3 to 1.4 µM.
